According to patent publication US12180169B1, “4-[4,4-bis(4-bromophenyl)-5-oxo-2-thioxoimidazolidin-1-yl]butanoic acid as an antimicrobial compound” (KING FAISAL UNIVERSITY, priority 2023, dated 2024):

How the values were obtained:
Type in all cases: cell-based
Conditions in all cases: after 10, 20, 40 and 60 min at all dilutions 1:100, 1:200, 1:400, 1:800
Candida albicans = test: Antimicrobial testing by agar dilution, Candida albicans fungi
Procedure: (§1) The antimicrobial properties of the 4-[4,4-bis(4-bromophenyl)-2,5-dioxoimidazolidin-1-yl]butanoic acid were studied by the method of agar dilution. Test solutions of each compound was prepared in concentration of 1% using dimethylformamide as a solvent then they are diluted in physiological solution to obtain the final experimental dilutions 1:100, 1:200, 1:400, 1:800. The effect of these substances are compared with furacillin in a controlable study. The testing microbes used were gram positive bacteria Staphylococcus aereus, gram negative bacteria Escherichia coli, Pseudomonas aeruginosa and Candida albicans fungi were taken. The experiments used for this survey were meat-pentonlu agar (EPA) for cultivation of bacteria and Saburo environment for fungi. Each experiment used 1 ml of test solution on each plate 500 min. Add 2 drops of emulsified with microbes feel. All experimental samples were taken from the agar after 10, 20, 40, 60 minutes in the environment on the basis of Patrk planted. Bacteria were cultivated at a temperature of 37° C. for 1 day and the mushroom was kept in a thermostat for […] at a temperature of 28° C. in the. Then results were checked.

Escherichia coli = test: Antimicrobial testing by agar dilution, Escherichia coli
Procedure: as §1

Staphylococcus aereus = test: Antimicrobial testing by agar dilution, Staphylococcus aereus
Procedure: as §1

Pseudomonas aeruginosa = test: Antimicrobial testing by agar dilution, Pseudomonas aeruginosa
Procedure: as §1

Measured: inhibition activity (summary in words)

O=C(O)CCCN1C(=O)C(c2ccc(Br)cc2)(c2ccc(Br)cc2)NC1=S [4-[4,4-bis(4-bromophenyl)-5-oxo-2-thioxoimidazolidin-1-yl]butanoic acid]
higher inhibition activity: Candida albicans | Escherichia coli | Staphylococcus aereus | Pseudomonas aeruginosa
